Measured values from PMC5010535 (Cancer research, 2016).
Values belong to the compound of their own block, whether it stands above or below them.

Key:
[1] = test system: LNCaP-abl cells; assay: Cell proliferation assay, LNCaP-abl cells; assay type: cell-based; details: 72 hours
[2] = test system: LNCaP-abl cells; assay: Clonogenic assay, LNCaP-abl cells; assay type: cell-based; details: 10 μM, 10 days
[3] = in vitro; details: rat, liver microsomes
[4] = test system: UBE2C; assay: UBE2C mRNA expression in LNCaP-95 cells; assay type: cell-based; details: 10 μM, 48 hours
[5] = in vitro; details: liver microsomes

SMILES: CNC(=O)c1ccc(N2C(=S)N(c3cnc(C#N)c(C(F)(F)F)c3)C(=O)C23CCC3)cc1F [ARN509]
effect on LNCaP-abl cellular proliferation ([1]; 10 μM): not growth inhibited
effect on colony formation [2]: Neither enzalutamide nor ARN509 could effectively prevent colony formation

remaining at 1 h, 1.09 µM [3]: 58.7%
SMILES: CC(C)NCC(O)COc1cccc2ccccc12 (stereo not shown) [Propranolol, propranolol]

SMILES: CNC(=O)c1ccc(N2C(=S)N(c3ccc(C#N)c(C(F)(F)F)c3)C(=O)C2(C)C)cc1F [enzalutamide]
effect on colony formation [2]: Neither enzalutamide nor ARN509 could effectively prevent colony formation
UBE2C mRNA expression [4]: significantly increased UBE2C mRNA expression

SMILES: C#C[C@]1(O)CC[C@H]2[C@@H]3CCC4=CC(=O)CC[C@]4(C)[C@H]3CC[C@@]21C [ethisterone]
EC50 (concentration required to inhibit the proliferation by 50%) ([1]; highest concentration tested 100 μM): failed to reach 50% inhibition at the maximal concentration tested

half-life at 1.09 µM [5]: ~1.33 h
SMILES: CCOc1ccc(NC(C)=O)cc1 [phenacetin]
